Experimental data: patent publication US20240016863A1, “LACTOBACILLUS JOHNSONII AND METHOD FOR INCREASING THE LEVEL OF UNSATURATION IN FATTY ACID USING LACTOBACILLUS JOHNSONII OR METABOLITES THEREOF” (TCI CO., LTD., priority 2022, published 2024)

System: HepG2 cells
Assay: Cholesterol metabolism test (cholesterol uptake, NBD cholesterol, flow cytometer)
Assay type: cell-based, Human
Conditions: U-18666A 1.25 μM, sample 0.25% (v/v)
Description: 1. Cell line: Human liver cells, purchased from ATCC (American Type Culture Collection), cell number: HB-8065, hereinafter referred to as HepG2 cells.
5. Cholesterol Uptake Cell-based Assay Kit: purchased from Cayman; product number: 600440. This cholesterol uptake cell-based assay kit included U-18666A and NBD cholesterol.
1. The HepG2 cells were inoculated into a 6-well culture plate containing 2 mL of cell medium in each well according to a density of 1×10^5 cells per well, and cultured at 37° C. for 24 h. The HepG2 cells were divided into three test groups, i.e., a Mock group, a control group and an experiment group, respectively. Each group underwent trial in triplicate.
2. […]
4. After rinsing, the cells of each group were processed according to the test process provided by the cholesterol uptake cell-based assay kit to obtain a test sample of each group; the parameters of the flow cytometer were set as excitation spectra and emission spectra of FITC, and then a green fluorescence signal of each group was detected by using the flow cytometer.
The relative cholesterol uptake in hepatocytes of all groups was calculated according to the following formula: relative cholesterol uptake in hepatocytes (%)=(green fluorescence signal of each group/green fluorescence signal of the Mock group)×100%.

Structure (SMILES): CCN(CC)CCO[C@H]1CC[C@@]2(C)C(=CC[C@@H]3[C@@H]2CC[C@]2(C)C(=O)CC[C@@H]32)C1 [U-18666A]
- relative cholesterol uptake in hepatocytes (HepG2, 20 μg/mL NBD cholesterol, 24-72 h, Mock group = 100%): 143.5%
- relative cholesterol uptake in hepatocytes increased compared with the Mock group (HepG2): about 43.5%
